Experimental data published in patent publication US9381166B2 (Rigshospitalet, priority 2007, dated 2016).
Read-outs that look alike come from different tables or passages of the source.

What was measured:
hemostatic system [1] = assay: TEG MA with combination of adrenergic receptor agonist and antagonists; type: in vivo, human
Protocol: FIG. 10: Seven healthy volunteers received 3 doses of adrenaline infusion lasting for 5 minutes each in the following step-wise increasing doses 3.5, 5.0 and 6.0 μg/kg/h. After resting 1 hour, the subjects received 0.15 μg/kg Seloken i.v. and rested again 30 minutes before repeating the step-wise adrenaline infusions. Blood samples were obtained from an arterial catheter at baseline (t=0.0), after each of the first adrenaline doses (t=5.0, t=10.1, t=15.0), at baseline after Seloken administration and rest (t=0.1) and after each of the subsequent adrenaline infusions (t=5.1, t=10.1, t=15.1). The blood was analyzed with TEG as described in FIG. 3 and Example 1. TEG MA values are presented as mean with 95% Cl and analyzed with a 2-way repeated measurements (RM) ANOVA with post hoc Bonferroni adjusted paired t-test of t=0.0 vs. t=5.0, t=10.1, t=15.0, respectively and t=0.1 vs. t=5.1, t=10.1, t=15.1, ***p<0.001.
Healthy volunteers rested 1 hour before receiving step-wise i.v. administration of adrenaline in the doses 3.5, 5.0 and 6.0 μg/kg/h, five minutes infusion at each dose, as described in FIG. 4. Hereafter the subjects rested for 1 hour and received an antagonist by i.v. infusion propanolol (primarily a β-2 antagonist, 0.15 mg/kg for 10 minutes), n=8, Urapidil (α-1 antagonist, 50 mg) or Seloken (β-1 antagonist 0.15 mg/kg for 10 minutes), n=7. […]

hemostatic system [2] = assay: Thrombelastography (TEG) of arterial whole blood after i.v. infusion in healthy volunteers; type: in vivo, human
Protocol: FIG. 3: Representative TEG profile of healthy volunteers before and after administration of adrenaline. Whole blood was drawn in 1/10 citrate from an arterial catheter. The citrated whole blood sample rested exactly 30 minutes at room temperature before TEG analysis on the Thrombelastograph Hemostasis Analyser, series 5000 (Haemoscope Corp., Skokie, Ill.): One ml of citrated whole blood was transferred to a kaolin vial (Haemoscope Corp.) and gently mixed by inversion 5 times. From the kaolin vial 340 μl was added to a plain TEG cup preloaded with 20 μl of 0.2 M CaCl2 and the analysis started immediately.
FIG. 4: TEG parameters (a) R, (b) Angle and (c) MA of 30 healthy volunteers after totally 15 minutes of i.v. administration of adrenaline. The subjects were catheterized and rested 60 minutes before administration of adrenaline was commenced. Adrenaline was step-wise infused intravenously for 5 minutes at each of the doses 3.5 μg/kg/h, 5.0 μg/kg/h and 6.0 μg/kg/h. Blood samples were collected from an arterial catheter at baseline (t=0) and immediately after each dose (t=5, t=10 and t=15).
FIG. 5: TEG MA measured before and after i.v. infusion of noradrenaline at 4.8 μg/kg/h for 15 minutes in 10 healthy volunteers, mean with 95% Cl. MA before and after noradrenaline was compared by a paired t-test with a p-value<0.05 considered statistically significant.
FIG. 6: TEG MA measured before (t=0) and after i.v. infusion of adrenaline at 4.8 μg/kg/h for 15 minutes (t=15) and 30 minutes after discontinuation of adrenaline administration (t=45). Data presented as mean with 95% Cl.
A whole blood sample for TEG analysis was drawn into a tube containing citrate (9 volumes of blood into 1 volume of 0.129 M citrate; […] system, BD Biosciences, Plymouth, UK) and rested for exactly 30 minutes before analysis: Coagulation was initiated by kaolin and re-calcified according to the instructions of the manufacturer: Citrated whole blood was added to a kaolin vial and mixed by gently inversion 5 times before transfer to the TEG cup containing calcium chloride (20 μl of 0.2 M CaCl2), which was preloaded into the TEG® cup as published previously [Johansson et al. 2008]. The hemostatic process was recorded by use of a TEG® coagulation analyzer (5000 series, Haemoscope Corporation). Adrenaline was mixed with 0.9% NaCl and infused intravenously.
FIG. 3 illustrates TEG profiles from a representative volunteer before and after receiving intravenous infusion of adrenaline 3 μg/kg/h for 15 minutes.

hemostatic system [3] = tested on: hemostatic system
Protocol: FIG. 7: TEG parameters (a) R, (b) Angle and (c) MA measured as described in FIG. 3 and example 1 on blood samples collected from patients infused with adrenaline prior to prostatectomy. Ten patients were anesthetized by propofol and haldid and infused with adrenaline i.v. in the doses 1, 2 and 3 μg/kg/h each for 5 minutes prior to skin incision. Hereafter the patients were prostatectomised according to local protocol. Blood samples were collected from an arterial catheter before adrenaline administration and immediately after each infusion dose (1, 2 and 3 μg/kg/h) and again 1 hour after discontinuation of adrenaline infusion. Statistics used: One-way ANOVA, Friedman Test, and Dunn's Multiple Comparison post hoc test of “before” compared to each of the following points 1, 2, 3 μg/kg/h and 1 hour after termination of adrenaline infusion, *p<0.05, **p<0.01,***p<0.001, ns: non significant.
Patients undergoing prostatectomy were anaesthetized by propofol and haldid. Prior to skin incision the patients received a step-wise i.v. infusion of adrenaline in the doses 1, 2 and 3 μg/kg/h each for 5 minutes. TEG analyses were performed as described in example 1, exactly 30 minutes after collection of arterial blood. Blood samples were obtained before and after each dose and 1 hour after discontinuation of adrenaline infusion.

[4] = Hemodynamic monitoring during adrenaline infusion without or with Seloken; type: in vivo, human
Description: FIG. 11: The healthy subjects described in FIG. 10 were monitored haemodynamically at the same time points as described in FIG. 10. (a) heart rate (HR), (b) cardiac output (CO), (c) stroke volume (SV), (d) invasive blood pressure: mean arterial pressure, MAP) and (d) total peripheral resistance (TPR). […] The conc x treatment is an analysis of the total response/the total pattern, to check whether there is an interaction between concentration and treatment. […] ANOVA: Analysis of variance.
The hemodynamic changes comprising heart rate (HR), cardiac output (CO), stroke volume (SV), mean arterial pressure (MAP) and total peripheral resistance (TPR) were monitored during the protocol described in example 7 and FIG. 10.

[5] = Plasma potassium concentration before and after adrenaline and Seloken; type: in vivo, human
Description: Plasma K+ concentrations where followed before and after administration of both adrenaline and Seloken (beta blocker).

[6] = i.v. step-wise 1, 2, 3 μg/kg/h or 3 μg/kg/h for 15 minutes before skin incision, vs 40 control patients
Protocol: The 2 intervention groups were compared to 40 controls also undergoing prostatectomy, whereof 20 underwent surgery prior to the interventions and the last 20 after the intervention. All values including median for each group is depicted. Comparisons between control group and each of the intervention groups was done separately by Mann Whitney test.
Blood loss of the 10 patients described in example 2 and 10 additional prostatectomy patients receiving a 15 minutes continuous adrenaline infusion of 3 μg/kg/h before skin incision were compared to 40 control patients, not receiving adrenaline, whereof 20 were operated before the interventions and the last 20 subsequently after the intervention (FIG. 8).

[7] = healthy volunteers, i.v. adrenaline 3 μg/kg/h for 15 minutes (FIG. 3, FIG. 4)
[8] = prostatectomy patients, step-wise i.v. 1, 2 and 3 μg/kg/h each for 5 minutes
[9] = in response to adrenaline infusions

Protocol for fibrinolysis: Arterial blood was collected in citrate before and after the last adrenaline dose (t=15) and again 30 minutes after end of infusion (t=45). The blood was analyzed with TEG (described in FIG. 3) after addition of tissue plasminogen activator (tPA) in a final concentration of 2.4 nM. (a) A representative example of TEG tracings with tPA induced fibrinolysis before and immediately after infusions of adrenaline. (b) Comparisons of the lysis AUC values t=0 vs. t=15 and t=0 vs. t=45, respectively by 1-way ANOVA, Friedman test and post hoc Dunn's Multiple Comparison Test, **p<0.01, ns: not significant.
When challenging the clot in vitro by induction of fibrinolyis, the Lysis AUC obtained by TEG (see FIG. 2) is a measure of the clot's resistance against fibrinolysis. Healthy subject received step-wise adrenaline infusion as described in FIG. 4, and blood was collected before (t=0), immediately after the infusion (t=15) and 30 minutes after discontinuation (t=45). Citrated whole blood was analysed precisely 30 minutes after blood collection: The fibrinolysis activator tPA (American Diagnostica) was added in a final concentration of 2.4 nM and TEG was performed as described in Example 1 and FIG. 3.

With `CNC[C@H](O)c1ccc(O)c(O)c1` [adrenaline, (R)-4-(1-hydroxy-2-(methylamino)ethyl)benzene-1,2-diol] the “TEG MA after adrenaline administration” value (hemostatic system [1]; healthy volunteers, step-wise 3.5, 5.0 and 6.0 μg/kg/h (FIG. 10)) was “increases”, the “time until MA returns to baseline after discontinuation of infusion” value (hemostatic system [2]; healthy volunteers, 4.8 μg/kg/h for 15 minutes (FIG. 6)) was at most 30 min and the MA response (hemostatic system [2]; healthy volunteers, adrenaline infusion 3.5, 5.0, 6.0 μg/kg/h (FIG. 4c)) was “dose-dependent increase”. For the same compound, the “TEG Angle (thrombin generation)” value (hemostatic system [2]; [7]) was “increased”, the “TEG MA (mechanical clot strength)” value (hemostatic system [2]; [7]) was “increased” and the “TEG R (initiation of the coagulation process)” value (hemostatic system [2]; [7]) was “shorter”. For the same compound, the “pro-hemostatic effect versus dose” value (hemostatic system [3]; 1, 2 and 3 microgram/kg/hour, compared to baseline (FIG. 7)) was “dose dependent increase”, the “pro-hemostatic effect on clot strength (MA) after discontinuation” value (hemostatic system [3]; 60 min after discontinuation of infusion, prostatectomy patients) was “abated” and the “time until MA returns to baseline after discontinuation of infusion” value (hemostatic system [3]; prostatectomy patients (FIG. 7c)) was at most 60 min. The “TEG Angle (propagation and thrombin generation)” value (hemostatic system [3]; [8]) was “increased”, the “TEG MA (mechanical strength of the clot)” value (hemostatic system [3]; [8]) was “increased” and the “TEG R (initiation of the coagulation process)” value (hemostatic system [3]; [8]) was “decreased”. The “heart rate (HR)” value ([4]; adrenaline alone, 3.5, 5.0, 6.0 μg/kg/h) was “increased HR significantly”, the “total peripheral resistance (TPR)” value ([4]; all adrenaline doses, with and without Seloken) was “significant decrease” and the “mean arterial pressure (MAP)” value ([4]; any of the adrenaline doses used) was “no effects”. The “cardiac output (CO)” value [4, 9] was “increase in CO”, the “stroke volume (SV)” value [4, 9] was “increase in SV” and the “plasma potassium concentrations following administration” value ([5]; three healthy volunteers) was “fell”. For the same compound, the “effect on Lysis AUC after discontinuation” value (fibrinolysis; 30 minutes after discontinuation of infusion (t=45)) was “abrogated”, the “increase of Lysis AUC (resistance against fibrinolysis)” value (fibrinolysis; healthy subjects, step-wise 3.5, 5.0, 6.0 μg/kg/h, t=15 vs t=0, tPA 2.4 nM) was 154% and the perioperative blood loss [6] was “reduced perioperative blood loss significantly”.

With `COCCc1ccc(OCC(O)CNC(C)C)cc1` (stereo not shown) [Seloken, Metoprolol] the “effect of antagonist on the MA increase after adrenaline” value (hemostatic system [1]; antagonist i.v. 30 minutes before repeated step-wise adrenaline 3.5, 5.0, 6.0 μg/kg/h, Seloken 0.15 mg/kg for 10 minutes) was “not affected”, the “adrenaline-induced increase in SV” value ([4]; after Seloken administration) was “not significantly lowered” and the “adrenaline-induced decrease in TPR” value ([4]; after Seloken treatment) was “significantly lower decrease”. The “adrenaline-induced increase in CO” value ([4]; when Seloken was administered, all adrenaline concentrations) was “significantly lower”, the “adrenaline-induced increase in HR” value ([4]; when Seloken was infused before adrenaline) was “practically abrogated/normalized” and the “drop in plasma potassium concentration after adrenaline” value ([5]; Seloken administered prior to adrenaline) was “less”.

For `NC[C@H](O)c1ccc(O)c(O)c1` [noradrenaline, 4-(2-Amino-1-hydroxyethyl)benzene-1,2-diol], the “pro-hemostatic effect (TEG MA)” value (hemostatic system [2]; 10 healthy subjects, i.v. 4.8 μg/kg/h for 15 minutes (FIG. 5)) was “pro-hemostatic effect”.
